Test results reported in US20050037423A1, “Isotopycally coded affinity marker 2” (Bayer Healthcare AG, priority 2001, published 2005).

Assay: Solubility in water
Format: physicochemical

solubility in water: completely soluble
Structure (SMILES): O=C(CCN1C(=O)C=CC1=O)NCCCOCCOCCOCCCNC(=O)[C@H](Cc1c[nH]cn1)NC(=S)Nc1ccc(CNC(=O)CCCC[C@@H]2SC[C@@H]3NC(=O)N[C@@H]32)cc1 [Example 3]
